Laboratory results published in patent US11492348B2, “Tri-substituted aryl and heteroaryl derivatives as modulators of PI3-kinase and autophagy pathways” (Neuropore Therapies, Inc., priority 2018, dated 2022).
Where a name gives a salt, the structure may show the parent alone.

Assays:
[1] = target: PI3Kα (Homo sapiens (Human), UniProt P42336); assay: Inhibition of PI3Kα (ADP-Glo kinase activity assay, ATP to ADP conversion); type: biochemical; conditions: 25 μM PIP2:PS, 60 μM ATP, 30 min reaction, luminescence
Sequence of PI3Kα (P42336 whole entry): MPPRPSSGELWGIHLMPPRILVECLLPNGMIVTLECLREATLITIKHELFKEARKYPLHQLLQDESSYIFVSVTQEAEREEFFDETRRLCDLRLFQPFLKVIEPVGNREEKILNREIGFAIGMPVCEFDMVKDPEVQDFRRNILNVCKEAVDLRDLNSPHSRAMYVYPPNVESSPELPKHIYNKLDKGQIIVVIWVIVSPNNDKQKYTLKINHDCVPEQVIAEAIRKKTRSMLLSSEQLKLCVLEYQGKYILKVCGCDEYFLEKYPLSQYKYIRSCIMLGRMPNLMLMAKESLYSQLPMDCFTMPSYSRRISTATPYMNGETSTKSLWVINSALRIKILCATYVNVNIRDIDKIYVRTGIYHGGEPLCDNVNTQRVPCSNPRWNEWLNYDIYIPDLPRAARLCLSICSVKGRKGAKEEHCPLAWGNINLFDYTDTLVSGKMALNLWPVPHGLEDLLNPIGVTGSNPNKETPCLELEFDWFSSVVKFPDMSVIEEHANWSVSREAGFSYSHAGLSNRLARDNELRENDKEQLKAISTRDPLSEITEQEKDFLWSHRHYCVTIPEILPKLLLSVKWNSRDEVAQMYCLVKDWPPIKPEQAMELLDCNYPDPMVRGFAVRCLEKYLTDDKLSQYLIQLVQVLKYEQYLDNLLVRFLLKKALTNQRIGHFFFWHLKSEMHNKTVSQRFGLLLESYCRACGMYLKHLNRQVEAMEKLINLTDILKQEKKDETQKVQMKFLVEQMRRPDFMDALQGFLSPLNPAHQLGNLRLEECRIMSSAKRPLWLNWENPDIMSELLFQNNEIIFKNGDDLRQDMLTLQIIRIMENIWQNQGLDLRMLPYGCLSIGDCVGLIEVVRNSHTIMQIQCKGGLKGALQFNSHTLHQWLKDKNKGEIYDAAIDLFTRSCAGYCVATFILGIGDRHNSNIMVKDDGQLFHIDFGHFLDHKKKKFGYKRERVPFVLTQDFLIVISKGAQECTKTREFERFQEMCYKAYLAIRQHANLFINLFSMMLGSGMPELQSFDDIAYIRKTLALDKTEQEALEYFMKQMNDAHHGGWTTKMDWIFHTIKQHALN
Sequence of PI3Kα (P27986 whole entry partner): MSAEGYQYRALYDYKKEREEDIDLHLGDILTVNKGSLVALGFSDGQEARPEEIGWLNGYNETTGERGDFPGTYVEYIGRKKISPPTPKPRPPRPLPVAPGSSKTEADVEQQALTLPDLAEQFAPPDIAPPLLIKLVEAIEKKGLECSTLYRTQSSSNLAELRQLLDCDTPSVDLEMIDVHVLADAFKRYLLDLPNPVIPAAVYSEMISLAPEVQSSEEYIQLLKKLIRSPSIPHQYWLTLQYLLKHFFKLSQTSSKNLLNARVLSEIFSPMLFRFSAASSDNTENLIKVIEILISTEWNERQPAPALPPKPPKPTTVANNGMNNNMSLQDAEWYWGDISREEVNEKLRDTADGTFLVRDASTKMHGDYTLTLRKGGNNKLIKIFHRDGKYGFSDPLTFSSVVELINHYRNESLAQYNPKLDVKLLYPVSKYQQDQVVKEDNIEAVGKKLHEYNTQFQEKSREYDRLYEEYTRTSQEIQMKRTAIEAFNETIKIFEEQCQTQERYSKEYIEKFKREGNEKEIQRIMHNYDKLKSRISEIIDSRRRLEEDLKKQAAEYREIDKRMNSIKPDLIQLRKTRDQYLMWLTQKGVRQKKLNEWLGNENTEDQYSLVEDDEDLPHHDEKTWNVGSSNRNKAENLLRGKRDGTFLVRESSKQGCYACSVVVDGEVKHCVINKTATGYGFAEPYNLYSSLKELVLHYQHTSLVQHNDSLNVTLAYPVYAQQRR
Procedure: Quantification of ATP to ADP conversion as a measure of PI3Kα activity. Active PI3Kα (Life Technologies), in the presence or absence of PI3Kα inhibitor, was reacted with PIP2:PS (Life Technologies), a substrate specifically optimized for use with Class I PI3 kinases, and ultrapure ATP (Promega). The conversion of ATP to ADP by PI3Kα was measured as luminescence signal via Promega ADP-Glo kinase activity assay. Assay was validated using published PI3Kα inhibitors LY294002, PI-103, BYL719, GDC0198 and also DMSO vehicle control.
Compounds were prepared at 100× final concentration as a 12-point, 1:3 serial-dilution in DMSO series, with DMSO control as 12th point. Compound was then diluted in (25 mM HEPES pH 7.5, 1 mM EGTA, 0.3% CHAPS) prior to addition to PI3Kα. Active PI3Kα diluted to 0.24 ng/μL (1.1 nM) in (50 mM HEPES pH 7.5, 6 mM MgCl2, 1 mM EGTA, 200 mM NaCl, 0.03% CHAPS, 8 mM DTT) was incubated with compound for 0 hr and 3 hr prior to the start of the reaction. 25 μM PIP2:PS and 60 μM ATP were diluted from stock in (25 mM HEPES pH 7.5, 1 mM EGTA, 0.3% CHAPS) and added to initiate the PI3Kα reaction. Reaction time was 30 minutes. ATP to ADP conversion was measured in Luminescence Counts on DTX880 Plate Reader (Beckman Coulter). Compound IC50s were reported using GraphPad Prism software. Analytical method was non-linear regression, 4-parameter curve fit with bottom fit to validated PI3Kα inhibitor reference controls and no top fit (floating top).

[2] = tested on: (Ser-473) pAKT in B103 (Rat Neuroblastoma) cells; assay: pAKT protocol: loss of (Ser-473) pAKT by AlphaScreen in insulin-stimulated B103 cells; type: cell-based; conditions: (Ser-473) pAKT/total AKT IC50, 2-hour pretreatment, 2.5 μg/mL insulin 20 minutes
Procedure: Inhibition of the PI3K-AKT-mTOR pathway was measured by quantifying the loss of (Ser-473) pAKT using AlphaScreen (Perkin Elmer). B103 (Rat Neuroblastoma) cells were seeded in serum containing medium (High Glucose DMEM (-Phenol Red)+10% FBS+2× Glutamax+1 mM Sodium Pyruvate+10 mM HEPES+1× Non-Essential Amino Acids+1× Pen/Strep) on a 96-well tissue culture treated plate and grown for 20 hours. Cells were then serum starved in serum free medium (High Glucose DMEM (-Phenol Red)+1× Glutamax+1 mM Sodium Pyruvate+1× Pen/Strep) for 6 hours prior to a 2-hour pretreatment with inhibitors of the pathway, including reference inhibitor LY294002. These inhibitors were prepared at a 200× final concentration as a 6-point, 1:3 serial dilution in DMSO series, with DMSO as the 7th point. The inhibitors were then diluted in experimental medium (High Glucose DMEM (-Phenol Red)+1× Glutamax+1 mM Sodium Pyruvate+1× Pen/Strep+25 mM HEPES+0.1% BSA) and combined with the cells at 1× final concentration in 0.5% DMSO. […] Cells were promptly lysed using Perkin Elmer proprietary lysis buffer and the (Ser-473) pAKT and total AKT contained in the lysate was measured by AlphaScreen. In AlphaScreen, donor beads were coated with streptavidin to capture one of the antibodies, which is biotinylated. Acceptor beads were coated with Protein A to immobilize the other antibody. In the presence of target protein, the two antibodies bring the donor and acceptor beads close together, generating signal. The amount of light emission is directly proportional to the amount of target protein present in the sample. For each inhibitor tested: the ratio of measured (Ser-473) pAKT/totalAKT was plotted in GraphPad Prism as a 7-point, non-linear regression, 4-parameter curve with bottom constrained to reference control bottom and unconstrained top anchored to DMSO.

Row | SMILES | PI3Ka IC50 [1] | IC50 [2]
1 | NCCNc1ncc(-c2cc(N3CCOCC3)cc(S(=O)(=O)Cc3ccc(F)cc3)c2)cn1 [47 (as a HCl salt), N1-(5-(3-((4-fluorobenzyl)sulfonyl)-5-morpholinophenyl)pyrimidin-2-yl)ethane-1,2-diamine] | 1200 nM | 2180 nM
2 | Nc1ncc(-c2cc(N3CCOCC3)cc(S(=O)(=O)C3CCCCC3)c2)cn1 [Compound 49, 5-(3-(cyclohexylsulfonyl)-5-morpholinophenyl)pyrimidin-2-amine] | 490 nM | 31100 nM
3 | Nc1ncc(-c2cc(N3CCOCC3)cc(S(=O)(=O)Cc3ccc(N4CCOCC4)cc3)c2)cn1 [Compound 58, 5-(3-morpholino-5-((4-morpholinobenzyl)sulfonyl)phenyl) pyrimidin-2-amine] | – | 41300 nM
4 | Nc1ncc(-c2cc(N3CCOCC3)cc(S(=O)(=O)CC3CCCCC3)c2)cn1 [Compound 60, 5-(3-((cyclohexylmethyl)sulfonyl)-5-morpholinophenyl)pyrimidin-2-amine] | 810 nM | 31100 nM
5 | Nc1ncc(-c2cc(N3CCOCC3)cc(S(=O)(=O)Cc3ccc4[nH]cnc4c3)c2)cn1 [Compound 63, 5-(3-(((1H-benzo[d]imidazol-5-yl)methyl)sulfonyl)-5-morpholinophenyl)pyrimidin-2-amine] | 470 nM | 3710 nM
6 | Nc1cc(C(F)(F)F)c(-c2cc(N3CCOCC3)cc(S(=O)(=O)[C@@H]3CCOC3)c2)cn1 [Compound 71, (R)-5-(3-morpholino-5-((tetrahydrofuran-3-yl)sulfonyl)phenyl)-4-(trifluoromethyl)pyridin-2-amine] | 9100 nM | 11200 nM
7 | Nc1ncc(-c2cc(N3CCOCC3)cc(S(=O)(=O)C3CCOC3)c2)c(C(F)(F)F)n1 (stereo not shown) [Compound 72, 5-(3-morpholino-5-((tetrahydrofuran-3-yl)sulfonyl)phenyl)-4-(trifluoromethyl)pyrimidin-2-amine] | 460 nM | 9130 nM
8 | CCC(=O)N1CC(S(=O)(=O)c2cc(-c3cnc(N)nc3)cc(N3CCOCC3)c2)C1 [Compound 75, 1-(3-((3-(2-aminopyrimidin-5-yl)-5-morpholinophenyl)sulfonyl)azetidin-1-yl)propan-1-one] | 250 nM | 6400 nM
9 | CC(C)C(=O)N1CC(S(=O)(=O)c2cc(-c3cnc(N)nc3)cc(N3CCOCC3)c2)C1 [Compound 76, 1-(3-((3-(2-aminopyrimidin-5-yl)-5-morpholinophenyl)sulfonyl)azetidin-1-yl)-2-methylpropan-1-one] | 300 nM | 5640 nM
10 | Nc1ncc(-c2cc(N3CCOCC3)cc(S(=O)(=O)C3CN(C(=O)C4CC4)C3)c2)cn1 [Compound 77, (3-((3-(2-aminopyrimidin-5-yl)-5-morpholinophenyl)sulfonyl)azetidin-1-yl)(cyclopropyl)methanone] | 100 nM | 3190 nM
11 | Nc1ncc(-c2cc(N3CCOCC3)cc(S(=O)(=O)C3CN(C(=O)Cc4ccc(F)cc4)C3)c2)cn1 [Compound 78, 1-(3-((3-(2-aminopyrimidin-5-yl)-5-morpholinophenyl)sulfonyl)azetidin-1-yl)-2-(4-fluorophenyl)ethan-1-one] | 180 nM | 4520 nM
12 | Nc1ncc(-c2cc(N3CCOCC3)cc(S(=O)(=O)C3CN(C(=O)c4ccc(F)cc4)C3)c2)cn1 [Compound 79, (3-((3-(2-aminopyrimidin-5-yl)-5-morpholinophenyl)sulfonyl)azetidin-1-yl)(4-fluorophenyl)methanone] | 210 nM | 5020 nM

Continued, values first:

Row | PI3Ka IC50 [1] | IC50 [2] | SMILES
13 | 62 nM | 26400 nM | NC(=O)N1CC(S(=O)(=O)c2cc(-c3cnc(N)nc3)cc(N3CCOCC3)c2)C1 [Compound 81, 3-((3-(2-aminopyrimidin-5-yl)-5-morpholinophenyl)sulfonyl)azetidine-1-carboxamide]
14 | 290 nM | 10800 nM | Nc1ncc(-c2cc(N3CCOCC3)cc(S(=O)(=O)CCc3ccc(F)cc3)c2)cn1 [Compound 82, 5-(3-((4-fluorophenethyl)sulfonyl)-5-morpholinophenyl)pyrimidin-2-amine]
15 | 1700 nM | – | Nc1ccc(-c2cc(N3CCOCC3)cc(S(=O)(=O)[C@@H]3CCOC3)c2)c(C(F)(F)F)n1 [Compound 105, (R)-5-(3-morpholino-5-((tetrahydrofuran-3-yl)sulfonyl)phenyl)-6-(trifluoromethyl)pyridin-2-amine]
16 | 840 nM | – | Cc1nc(N)ncc1-c1cc(N2CCOCC2)cc(S(=O)(=O)[C@@H]2CCOC2)c1 [Compound 121, (R)-4-methyl-5-(3-morpholino-5-((tetrahydrofuran-3-yl)sulfonyl)phenyl)pyrimidin-2-amine]
17 | 62 nM | – | Nc1ncc(-c2cc(C3CCOc4ccccc43)cc(N3CCOCC3)n2)cn1 (stereo not shown) [Compound 141, 5-(4-(chroman-4-yl)-6-morpholinopyridin-2-yl)pyrimidin-2-amine]
18 | 5.7 nM | – | Nc1ncc(-c2cc(S(=O)(=O)[C@H]3CCOC3)cc(N3CCOCC3)n2)cn1 [Compound 142a, (S)-5-(6-morpholino-4-((tetrahydrofuran-3-yl)sulfonyl)pyridin-2-yl)pyrimidin-2-amine]
19 | 6.8 nM | – | Nc1ncc(-c2cc(S(=O)(=O)[C@@H]3CCOC3)cc(N3CCOCC3)n2)cn1 [Compound 142b, (R)-5-(6-morpholino-4-((tetrahydrofuran-3-yl)sulfonyl)pyridin-2-yl)pyrimidin-2-amine]
20 | 390 nM | – | Nc1cc(C(F)(F)F)c(-c2cc(S(=O)(=O)c3ccccc3)cc(N3CCOCC3)n2)cn1 [Compound 144, 6-morpholino-4-(phenylsulfonyl)-4′-(trifluoromethyl)-[2,3′-bipyridin]-6′-amine]
21 | 390 nM | – | CC(=O)Nc1ncc(-c2cc(S(=O)(=O)c3ccccc3)cc(N3CCOCC3)n2)cn1 [Compound 145, N-(5-(6-morpholino-4-(phenylsulfonyl)pyridin-2-yl)pyrimidin-2-yl)acetamide]
22 | 370 nM | – | O=S(=O)(c1ccccc1)c1cc(-c2cnc(NC3CC3)nc2)nc(N2CCOCC2)c1 [Compound 146, N-cyclopropyl-5-(6-morpholino-4-(phenylsulfonyl)pyridin-2-yl)pyrimidin-2-amine]
23 | 7 nM | – | Nc1ncc(-c2cc(S(=O)(=O)C3COc4ccccc43)cc(N3CCOCC3)n2)cn1 (stereo not shown) [Compound 147, 5-(4-((2,3-dihydrobenzofuran-3-yl)sulfonyl)-6-morpholinopyridin-2-yl)pyrimidin-2-amine]
24 | 13 nM | – | Nc1ncc(-c2cc(S(=O)(=O)C3CCOCC3)cc(N3CCOCC3)n2)cn1 [Compound 148, 5-(6-morpholino-4-((tetrahydro-2H-pyran-4-yl)sulfonyl)pyridin-2-yl)pyrimidin-2-amine]
25 | 14 nM | – | Nc1ncc(-c2cc(C(=O)C3CCOC3)cc(N3CCOCC3)n2)cn1 (stereo not shown) [Compound 149, (2-(2-aminopyrimidin-5-yl)-6-morpholinopyridin-4-yl)(tetrahydrofuran-3-yl)methanone]
26 | 450 nM | – | CC1CN(c2cc(S(=O)(=O)c3ccccc3)cc(-c3cnc(N)nc3)n2)CC(C)O1 (stereo not shown) [Compound 150, 5-(6-(2,6-dimethylmorpholino)-4-(phenylsulfonyl)pyridin-2-yl)pyrimidin-2-amine]
27 | 830 nM | – | Nc1ncc(-c2cc(S(=O)(=O)c3ccccc3)cc(N3CC4CCC(C3)O4)n2)cn1 [Compound 151, 5-(6-(8-oxa-3-azabicyclo[3.2.1]octan-3-yl)-4-(phenylsulfonyl)pyridin-2-yl)pyrimidin-2-amine]
